According to US20240252677A1, “ONE-COMPONENT DELIVERY SYSTEM FOR NUCLEIC ACIDS” (The Trustees of the University of Pennsylvania, priority 2021, published 2024):

Tests used:
liver = test: In vivo mRNA delivery, IVIS imaging of organs: liver; parameters: species or system mice; key to Organs with luminescence: liver: strong: Strong meant the luminescence intensity in that organ was relatively high, compared to other organs; weak: Weak meant the luminescence intensity in that organ was relatively low, compared to other organs; settings: Table 17; mice, IVIS, 4-6 h after injection; intensity relative to other organs
Description: The exposure time was 1 min.
Tissue luminescence signal was measured on the IVIS imaging system using an exposure time of 60 seconds using medium binning (binning=8) to ensure that the signal obtained was within operative detection range. […] Bioluminescence imaging was performed as described above.
Tissue luminescence signal was measured on the IVIS imaging system using a certain exposure time (60, 30 or 15 seconds) and medium binning (binning=8) to ensure that the signal obtained was within operative detection range.

BALB/c mice = test: In vivo mRNA delivery in mice with DNPs, whole-body bioluminescence imaging (IVIS)
[1] = Dimensions (size, PDI) of DNPs co-assembled from IAJDs and Luc-mRNA by DLS; format: physicochemical
Outline: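 IAJDs (80 mg/mL ethanol stock) rapidly injected into Luc-mRNA (4.0 mg/mL stock) diluted in 10 mM acetate buffer pH 4.0, then vortexed 5 s. Size and polydispersity of resulting DNPs measured by DLS (633 nm laser, 175° detection) at 23 °C.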

lung = test: In vivo mRNA delivery, IVIS imaging of organs: lung; parameters: species or system mice; key to Organs with luminescence: lung: strong: Strong meant the luminescence intensity in that organ was relatively high, compared to other organs; weak: Weak meant the luminescence intensity in that organ was relatively low, compared to other organs; settings: Table 17; mice, IVIS, 4-6 h after injection; intensity relative to other organs
[2] = Stability of DNPs by DLS after storage at 5° C.; format: physicochemical; parameters: key: Excellent: the original sizes and distribution types remained almost the same after storage; Good: the original sizes and distribution types changed slightly (size difference was less than 100 nm) or the original size remained almost the same but the DLS curve showed more size distributions after storage
Description: The stability of the DNPs as assayed by DLS. All the samples are prepared in acetate buffer. The stabilities of the constructs were ranked: Excellent (in bold)—the original sizes and distribution remains almost the same after storage; Good—the original relatively big sizes became smaller or broad size distribution became narrower; Not stable—the original relatively big sizes or broad size distribution remained almost the similar level, or the original relatively small sizes became bigger or narrow size distribution became broader.

[3] = Stability of DNPs by DLS after storage at 5° C.; format: physicochemical; parameters: key to Original size distribution type (DLS curve) / Size distribution type (DLS curve): U: DLS curve showed unimodal size distribution; B: DLS curve showed bimodal size distribution; M: DLS curve showed multimodal size distribution; settings: for pH Sample: DNPs: IAJD 4.0 mg/mL + Luc-mRNA 0.1 mg/mL, injection in acetate buffer pH 4.00; for PDI / Size (d, nm) / Original size distribution type (DLS curve): IAJD 4.0 mg/mL + Luc-mRNA 0.1 mg/mL; for PDI / Size (d, nm): acetate buffer; for Original size distribution type (DLS curve): before storage, acetate buffer pH 4.00
Outline: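 DNPs in acetate buffer sized by DLS after storage at 5 °C. Stability ranked Excellent, Good or Not stable according to retention, shrinkage or growth of original size and narrowing or broadening of size distribution.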

[4] = Table 16, DNPs from IAJD 4 mg/mL and Luc-mRNA 0.10 mg/mL by injection in acetate buffer (10 mM, pH 4.0)
[5] = Table 17, DNPs used in vivo, IAJD 4 mg/mL, Luc-mRNA 0.10 mg/mL, acetate pH 4.0

Row | PDI [1, 4] | Size (d, nm) [1, 4] [nm] | PDI [1, 5] | Size (d, nm) [1, 5] [nm] | pH Sample [3] | Original size distribution type (DLS curve) [3] | Ranking of stability ([2]; after 62 days at 5° C.) | Size distribution type (DLS curve) ([3]; after 62 days at 5° C.) | PDI ([3]; after 62 days at 5° C.) | Size (d, nm) ([3]; after 62 days at 5° C.) [nm] | SMILES | Organs with luminescence: liver (liver) | In vivo activity (total flux, p/s) (BALB/c mice; Table 19, nonsymmetric IAJDs) | Organs with luminescence: lung (lung) | other results
1 | 0.351 | 105 | 0.351 | 105 | 4.46 | (U) |  |  |  |  | CCCCCCCCCCCOc1cc(COC(=O)CCCN2CCN(C)CC2)cc(OCCCCCCCCCC)c1 [IAJD 114, 3-(Decyloxy)-5-(undecyloxy)benzyl 4-(4-methylpiperazin-1-yl)butanoate] | liver (weak), | 3.56 × 10^6 p/s | Lung (weak), | Ranking of stability ([2]; after 75 days at 5° C.): Good; Size distribution type (DLS curve) ([3]; after 75 days at 5° C.): (B); PDI ([3]; after 75 days at 5° C.): 0.369; Size (d, nm) ([3]; after 75 days at 5° C.): 107 nm
2 | 0.264 | 150 | 0.264 | 150 | 4.47 | (U) | Excellent | (U) | 0.272 | 168 | CCCCCCCCCCCCCOc1cc(COC(=O)CCCN2CCN(C)CC2)cc(OCCCCCCCCCCC)c1 [IAJD 116, 3-(Tridecyloxy)-5-(undecyloxy)benzyl 4-(4-methylpiperazin-1-yl)butanoate] | liver (weak), | 2.38 × 10^7 p/s | Lung (weak), | 
3 | 0.367 | 255 | 0.367 | 255 | 4.40 | (B) |  |  |  |  | CCCCCCCCCCCCCOc1cc(COC(=O)CCCN2CCN(CCO)CC2)cc(OCCCCCCCCCCC)c1 [IAJD 117, 3-(Tridecyloxy)-5-(undecyloxy)benzyl 4-(4-(2-hydroxyethyl)piperazin-1-yl)butanoate] | liver (weak), | 8.64 × 10^6 p/s | Lung (weak), | Ranking of stability ([2]; after 70 days at 5° C.): Excellent; Size distribution type (DLS curve) ([3]; after 70 days at 5° C.): (B); PDI ([3]; after 70 days at 5° C.): 0.312; Size (d, nm) ([3]; after 70 days at 5° C.): 323 nm
4 | 0.278 | 104 | 0.278 | 104 | 4.43 | (B) |  |  |  |  | CCCCCCCCCCCCCCCOc1cc(COC(=O)CCCN2CCN(C)CC2)cc(OCCCCCCCCCCC)c1 [IAJD 118, 3-(Pentadecyloxy)-5-(undecyloxy)benzyl 4-(4-methylpiperazin-1-yl)butanoate] | liver (weak), | 1.46 × 10^7 p/s | Lung (weak), | Ranking of stability ([2]; after 75 days at 5° C.): Excellent; Size distribution type (DLS curve) ([3]; after 75 days at 5° C.): (B); PDI ([3]; after 75 days at 5° C.): 0.262; Size (d, nm) ([3]; after 75 days at 5° C.): 105 nm
5 | 0.459 | 163 | 0.459 | 163 | 4.36 | (M) | Good | (B) | 0.489 | 254 | CCCCCCCCCCCCCCCOc1cc(COC(=O)CCCN2CCN(CCO)CC2)cc(OCCCCCCCCCCC)c1 [IAJD 119, 3-(Pentadecyloxy)-5-(undecyloxy)benzyl 4-(4-(2-hydroxyethyl)piperazin-1-yl)butanoate] | liver (weak), | 8.22 × 10^7 p/s | Lung (weak), | 
6 | 0.300 | 255 | 0.300 | 255 | 4.44 | (U) | Excellent | (U) | 0.283 | 276 | CCCCCCCCCCCCCCOc1cc(COC(=O)CCCN2CCN(CCO)CC2)cc(OCCCCCCCCCCC)c1 [IAJD 125, 3-(Tetradecyloxy)-5-(undecyloxy)benzyl 4-(4-(2-hydroxyethyl)piperazin-1-yl)butanoate] | liver (weak), | 2.15 × 10^8 p/s | Lung (weak), | In vivo activity (total flux, p/s) (BALB/c mice; Table 20, nonsymmetric IAJDs and MC3-Luc-mRNA): 2.15 × 10^8 p/s
7 | 0.247 | 158 | 0.247 | 158 | 4.48 | (U) |  |  |  |  | CCCCCCCCCCCCCCCCCOc1cc(COC(=O)CCCN2CCN(C)CC2)cc(OCCCCCCCCCCC)c1 [IAJD 126, 3-(Heptadecyloxy)-5-(undecyloxy)benzyl 4-(4-methylpiperazin-1-yl)butanoate] | liver (weak), | 3.21 × 10^7 p/s | Lung (weak), | Ranking of stability ([2]; after 70 days at 5° C.): Excellent; Size distribution type (DLS curve) ([3]; after 70 days at 5° C.): (U); PDI ([3]; after 70 days at 5° C.): 0.239; Size (d, nm) ([3]; after 70 days at 5° C.): 154 nm
8 | 0.305 | 99 | 0.305 | 99 | 4.52 | (U) |  |  |  |  | CCCCCCCCCCCCCCCOc1cc(COC(=O)CCCN2CCN(CCO)CC2)cc(OCCCCCCCC)c1 [IAJD 138, 3-(Octyloxy)-5-(pentadecyloxy)benzyl 4-(4-(2-hydroxyethyl)piperazin-1-yl)butanoate] |  | 1.49 × 10^7 p/s | Lung (weak), | Ranking of stability ([2]; after 35 days at 5° C.): Good; Size distribution type (DLS curve) ([3]; after 35 days at 5° C.): (B); PDI ([3]; after 35 days at 5° C.): 0.261; Size (d, nm) ([3]; after 35 days at 5° C.): 112 nm
9 | 0.370 | 281 | 0.370 | 281 | 4.45 | (B) |  |  |  |  | CCCCCCCCCCCCCCCCCOc1cc(COC(=O)CCCN2CCN(CCO)CC2)cc(OCCCCCCCCCCCCCCC)c1 [IAJD 152, 3-(Heptadecyloxy)-5-(pentadecyloxy)benzyl 4-(4-(2-hydroxyethyl)piperazin-1-yl)butanoate] | Liver (weak), | 1.97 × 10^7 p/s |  | Ranking of stability ([2]; after 35 days at 5° C.): Excellent; Size distribution type (DLS curve) ([3]; after 35 days at 5° C.): (U); PDI ([3]; after 35 days at 5° C.): 0.286; Size (d, nm) ([3]; after 35 days at 5° C.): 253 nm
10 | 0.218 | 91 | 0.218 | 91 | 4.72 | (U) |  |  |  |  | CCCCCCCCCCCCCCCCCOc1cc(CNC(=O)c2cc(OCCOCCOCCOC(=O)CCCN3CCCCC3)c(OCCCOCOCCOCc3ccccc3)c(OCCOCCOCCOC(=O)CCCN3CCCCC3)c2)cc(OCCCCCCCCCCCCCCCCC)c1 [IAJD 159] |  |  | Lung (strong) | increase of activity, amide vs ester interconnecting group (BALB/c mice; transition from 158(11/17) (ester) to 159(11/17) (amide)): about 6 fold; Ranking of stability ([2]; after 11 days at 5° C.): Excellent; Size distribution type (DLS curve) ([3]; after 11 days at 5° C.): (U); PDI ([3]; after 11 days at 5° C.): 0.220; Size (d, nm) ([3]; after 11 days at 5° C.): 93 nm
